Laboratory results taken from US20190307754A1, “PDE9 INHIBITORS FOR TREATMENT OF PERIPHERAL DISEASES” (IMARA, INC., priority 2016, published 2019).
Several values for one entry are separate records, joined by “and”; a condition that tells them apart may be missing. Identical values can stand only once. Like-named read-outs stand apart in the source and are kept apart here.

Assays:
[1] = system: PDE1; assay: PDE1 inhibition assay; assay type: biochemical
Method: Reactions were initiated by addition of the cyclic nucleotide substrate, and reactions were allowed to proceed for 1 h at room temperature before being terminated through mixing with 20 μL (0.2 mg) yttrium silicate SPA beads (PerkinElmer).

[2] = system: rat; assay: In vivo rat micronucleus study
From the text: (§1) The genotoxicity evaluation of Compound P3.1 consisted of a bacterial reverse mutation assay, a chromosome aberration study, and a in vivo rat micronucleus study. Compound P3.1 was negative in all 3 assays.

[3] = Stability study in purified water; assay type: physicochemical; settings: approximately 40 mg/mL in purified water, refrigerated and ambient, 8 days
Method: In another stability study, Compound P3.1 was dissolved at approximately 40 mg/mL of purified water, and evaluated for purity over a period of 8 days. Samples were stored at both refrigerated and ambient conditions, and tested at T=0, Day 2, and Day 8.

[4] = Plasma protein binding, mouse; assay type: in vitro ADME; settings: read-out: mean plasma fraction bound (converted)
[5] = Plasma protein binding, humans; assay type: in vitro ADME; settings: human, read-out: mean plasma fraction bound (converted)
[6] = system: TNF-α activated endothelium; assay: Micro-channel assay of platelet, PMN and RBC binding (FIG. 10); assay type: cell-based, human; settings: bound cells at 30 min
Method: In another assay, using the same method, the reduction of PMN and RBC bindings to TNF-α activated endothelium in a micro channel well was confirmed. Platelet, PMN, and RBC in blood samples from 5 healthy normal volunteers (donors) were labelled with fluorescent dyes. The blood samples were incubated with Compound P3.1 for 2 hours or 3 hours, or HU for 3 hours, prior to running them on micro channels that were previously coated with endothelial cells activated with TNF-α. The % of bound cells was quantified at 30 min. Results are shown in FIG. 10A, FIG. 10B, and FIG. 10C.

[7] = in vivo; settings: rat, 250 mg/kg/day
Method: Animals were observed daily from the start of the dosing and body weights and food intake were recorded at regular intervals. Blood samples were collected from a subset of animals in each group at 6 time points on Day 7 for TK evaluation.

[8] = in vivo; settings: rat
Method: (§2) In a 14-day repeat-dose toxicity study in rats, Compound P3.1 was orally administered (gavage) at doses of 0 (vehicle), 50, 200, and 400 mg/kg/day.

[9] = system: rat; assay: in vivo
Method: as §2

[10] = Metabolic stability (intrinsic clearance) in liver microsomes; assay type: in vitro ADME, mouse, rat, dog, monkey, and human
[11] = Bacterial reverse mutation assay; assay type: cell-based
From the text: as §1

[12] = Pharmacokinetics in mice and rats (statements for both species); assay type: in vivo; settings: for half-life: read-out: elimination half-life (converted)
Method: The PK evaluation of Compound P3.1 included Absorption, Distribution, Metabolism, and Excretion (ADME) studies, as well as assessment for CYP enzyme inhibition.
Blood samples were taken at 2 minutes (IV only), then 8, 15, 30 minutes, and 1, 2, 4, 8, and 24 hours after dosing and analyzed for key PK parameters. In the rats, brain samples were taken at 24 hours and analyzed for Compound P3.1. To evaluate the penetration of Compound P3.1 across the blood-brain barrier (BBB), 10 additional rats received IV Compound P3.1 3 mg/kg and plasma and brain concentrations of Compound P3.1 were determined from 2 animals at 15 minutes, 30 minutes and 1, 2, and 4 hours after dosing.

[13] = in vivo; assay type: in vivo; settings: rat, in vivo, 1000 mg/kg; read-out: plasma exposure (AUC0-24)
From the text: (§3) The safety pharmacology assessment of Compound P3.1 included an in vitro hERG assay, neurofunctional and respiratory studies in rats, and a cardiovascular study in beagle dogs.
(§4) The death was considered test article related. […]

[14] = system: rat; assay: in vivo; assay type: in vivo
From the text: as §3, §4

[15] = system: conscious dogs; assay: Cardiovascular study in beagle dogs; assay type: in vivo, dog
Method: as §3
In a cardiovascular study conducted in 4 dogs, treatments were performed by oral gavage according to a crossover design after allowing a minimum washout period of 48 hours. In conscious dogs, Compound P3.1 at doses of 10 and 25 mg/kg had no effect on arterial blood pressure, heart rate, body temperature, cardiac conduction times, ventricular repolarization duration, QT variability, or ST segment.

[16] = Blood Brain Barrier penetration (brain-to-plasma distribution); assay type: in vivo; settings: male CD mice, 10 mg/kg subcutaneous
Method: Male CD mice (20-24 g) were housed pair-wise with free access to food and water for an acclimatization period of 3-7 days before initiation of experiments. Prior to dosing the animals were fasted overnight. During testing, mice were kept in individual cages. The brain-to-plasma distribution was assessed 30 minutes and 2 hours after subcutaneous administration of the test compound at a dose of 10 mg/kg (n=3 at each time point). The dose volume was 10 ml/kg using appropriate vehicle to solubilize each test compound. At the time of sampling, animals were anesthetized with isoflurane and a systemic blood sample collected by cardiac puncture into vacutainers containing sodium heparin as anti-coagulant. The blood was centrifuged at 3500 rpm for 10 minutes at 4° C. to obtain plasma. Following decapitation, brains were dissected out and transferred to pre-weighed vessels followed by tissue weights determination. Plasma and brains were stored at −80° C. until quantitative bioanalysis by LC-MS/MS. Results are expressed as ng/ml for plasma and ng/g for brain samples.

C[C@@H]1CN(Cc2ncccn2)C[C@H]1c1cn2c(C3CCOCC3)ncc2c(=O)[nH]1 (single isomer, unassigned) [Compound P3.1]
IC50 [1]: 3000 nM
genotoxicity, in vivo rat micronucleus study [2]: negative
stability: purity and appearance of solution [3]: No significant change to the purity of the compound or appearance of the solution
fraction unbound [4]: 0.767
fraction unbound [5]: 0.686
platelet binding ([6]; Compound P3.1 2 or 3 hours, HU 3 hours): did not impact platelet binding
PMN adhesion to endothelial cells ([6]; blood incubated 2 or 3 hours): reduced
RBC adhesion to endothelial cells ([6]; blood incubated 2 or 3 hours): reduced
AUC0-24 ([7]; male, Crl:WI(Han), po): 198 µg·h/mL
Cmax ([7]; male, Crl:WI(Han), po): 18800 ng/mL
AUC(0-t) ([7]; male, Crl:WI(Han), po, AUC0-24): 226 µg·h/mL
Cmax ([7]; male, Crl:WI(Han), po, Cmax): 16500 ng/mL
Cmax and systemic exposure of Compound P3.1 in isolation vs in combination with HU [7]: similar
NOAEL at 14 days ([8]; female): 50 mg/kg/day and 50 mg/kg
NOAEL at 14 days ([8]; male): 200 mg/kg/day and 200 mg/kg
AUC(0-t) ([8]; 400 mg/kg/day, plasma exposure (AUC0-24)): > 354 µg·h/mL
exposure relative to anticipated efficacious dose [9]: > 10 fold
exposure vs dose [9]: increased proportionally with dose
findings at highest dose ([9]; 400 mg/kg/day): reductions in body weight, weight gain, and food intake, and premature deaths
metabolic stability ([10]; mouse, rat, dog, monkey, and human liver microsomes): highly stable
intrinsic clearance in liver microsomes ([10]; presence or absence of NADPH): minimal intrinsic clearance
genotoxicity, bacterial reverse mutation assay [11]: negative
plasma concentrations by 24 hours ([12]; 10 mg/kg oral, both species): below the lower limit of quantification (LLOQ)
Tmax ([12]; CD1 (mouse), Sprague Dawley (rat), mouse, rat, plasma, 10 mg/kg, oral, mice and rats, read-out: time of maximum concentration (Tmax)): 0.5 to 1 h
half-life ([12]; CD1 (mouse), Sprague Dawley (rat), mouse, rat, plasma, oral, intravenous, mice and rats): < 3 h
half-life ([12]; CD1 (mouse), Sprague Dawley (rat), mouse, rat, plasma, other: oral and intravenous (both routes), mice and rats): ~3 h
plasma concentration by 24 hours ([12]; IV, both species): below the LLOQ
AUC(0-t) [13]: > 500 µg·h/mL
mortality ([14]; 1000 mg/kg, approximately 4.8 hours after dosing): One male rat was found dead
exposure relative to anticipated efficacious dose ([14]; rat, in vivo): approximately 48 fold
respiratory functions ([14]; rat, in vivo, po, 1000 mg/kg): transient increases in respiratory rate and tidal volume
cardiovascular effects ([15]; oral gavage 75 mg/kg): induced tachycardia as well as a slight, progressive and delayed decrease in blood pressure and shortened conduction times
arterial blood pressure, heart rate, body temperature, conduction times, repolarization, QT variability, ST segment ([15]; oral gavage 10 and 25 mg/kg): no effect
Plasma concentration after 30 minutes ([16]; 30 min): 30 min.: 1620 ng/mL
Plasma concentration after 120 minutes ([16]; 120 min): 120 min.: 226 ng/mL
Kp at 0.5 h ([16]; mouse, brain, sc, 30 min, read-out: Brain/Plasma ratio after 30 minutes): 0.04
Kp at 2 h ([16]; mouse, brain/plasma, sc, 120 min, read-out: Brain/Plasma ratio after 120 minutes): 0.03
